# Measurements published in article PMC4632503, “Targeting of Helicobacter pylori thymidylate synthase ThyX by non-mitotoxic hydroxy-naphthoquinones” (Open Biology, 2015).
# “Also recorded” adds a separate entry of the source. Like-named read-outs stand apart in the source and are kept apart here.
# Key:
# [1] = test system: H. pylori strain 26695; assay: MIC, broth microdilution test, strain 26695; assay type: cell-based; details: Helicobacter pylori
# Experimental: (§1) The in vitro anti-bacterial activity of 2-OH-1,4-NQ compounds was assessed against the 26695 and SS1 strains of H. pylori. DMSO was used as control in all experiments.
# (§2) Disc diffusion tests were performed in triplicate, including a DMSO-only control on each plate, as specified in the electronic supplementary material. Minimal inhibitory concentrations (MICs) were determined using a broth microdilution test in 24-well microtitre plates. For test inocula, an overnight preculture of H. pylori strains 26695 and SS1 was diluted to an OD600 of approximately 0.1 and 0.5 ml of this suspension was transferred to each well. Ten microlitres of twofold serial dilutions of each compound in DMSO, ranging in concentration from 0.625 to 20 µg ml^−1, were added and the covered plates were incubated for 24 h at 37°C with orbital shaking at 140 r.p.m. under microaerophilic conditions. The MIC was determined as the lowest compound concentration resulting in full growth inhibition after 24 h of incubation. All the tests were done in triplicate, including cell-free and DMSO-only controls.
# [2] = target: T1, HpThyX (Helicobacter pylori, UniProt O26061); assay: NADPH oxidation assay; assay type: biochemical; details: estimated from slope of IC50 versus dUMP concentration
# T1 construct: His6; made in house; host or cells: Escherichia coli BL21 (plasmid pGL2, pBAD promoter)
# Experimental: (§3) HpThyX activity was assessed by measuring either deprotonation of [5-^3H]dUMP or NAPDH oxidation activities.
# NADPH oxidation assays were performed at 37°C in 96-well plates (Greiner Bio-One). One hundred microlitres of reaction mixture contained HEPES 50 mM (pH 8.6), NaCl 150 mM, FAD 50 µM, β-mercaptoethanol 1.43 mM, NADPH 500 µM and 10 µM of purified HpThyX. dUMP and 2-OH-1,4-NQ concentrations were varied across 12.5–200 µM and 0.3–100 µM, respectively. Microtitre plates were prepared and transferred to the microplate reader Chameleon II (Hidex). The reactions were started by automatically injecting NADPH into individual wells and ThyX activity was determined by following a decrease in absorbance at 340 nm. A molar extinction coefficient of 6220 M^−1 cm^−1 at 340 nm (ε340) was used to quantify NADPH oxidation. Samples with added DMSO and enzyme-free reactions were used as positive and negative controls, respectively.
# [3] = test system: AGS cells; assay: cytotoxicity, LDH release; assay type: cell-based, human; details: 0.78 to 50 μg ml^−1, 24 h
# Experimental: Cytotoxicity of the 2-OH-1,4-NQ derivatives was assessed by measuring lactate dehydrogenase (LDH) release following manufacturer's instructions (Cytotoxicity Detection Kit; Roche Applied Sciences). Briefly, AGS cells (human gastric adenocarcinoma cell line; ATCC Catalog no. CRL-1739TM) were cultured in Ham's F-12 K medium containing 1% of FBS. A total of 3 × 10^4 cells were added per well in a sterile 96-well tissue culture plate. Cells were then treated with different doses of 2-OH-1,4-NQ compounds ranging from 0.78 to 50 μg ml^−1. After a 24 h incubation at 37°C (5% CO2, 90% humidity), the microplates were centrifuged at 250g for 10 min, and the supernatants were carefully removed and transferred into optically clear 96-well microplates (Greiner Bio-One). The dye solution containing iodotetrazolium chloride and sodium lactate was then added to each well to quantify the amount of LDH released into the extracellular medium. LDH was quantified by measuring the A490 using a PowerWave Microplate Spectrophotometer (BioTek).
# [4] = test system: H. pylori 26695; assay: bactericidal activity, viable counts (CFU) in liquid culture; assay type: cell-based, Helicobacter pylori; details: exposure up to 24 h, replating on solid media, listed as C8-C1
# Experimental: To determine the bactericidal activity of C8-C1 against H. pylori, liquid BHI medium was inoculated with an overnight culture of H. pylori 26695 at an initial OD600 of 0.1. C8-C1 or chloramphenicol, used as bacteriostatic control, were added after 4 h of culture time at final concentrations of 5 and 30 µg ml^−1. To determine the viable counts of surviving bacteria (colony forming units, CFU), aliquots of culture were then plated in triplicate on blood agar plates after 3 and 24 h exposure.
# [5] = test system: H. pylori strain SS1; assay: MIC, broth microdilution test, strain SS1; assay type: cell-based; details: Helicobacter pylori, 24 h, read-out: minimal inhibitory concentration (MIC) strain SS1
# Experimental: as §1, §2
# [6] = target: T1, HpThyX; assay: tritium release (deprotonation) assay of [5-3H]dUMP; assay type: biochemical; details: for remaining activity at 100 µM: 20 min, semi-quantitative deprotonation assay, lower = stronger inhibition, read-out: inhibition against ThyX (% remaining activity relative to control); for dTMP-forming activity: quantitative tritium release assay, 100 μM compound, 10 μM ThyX enzyme
# Experimental: as §3
# In the tritium release (deprotonation) assays, typical reactions contained 10 mM MgCl2, 10% (v/v) glycerol, 500 µM FAD, 2 mM NADPH, 1 mM CH2H4Folate and 10 mM β-mercaptoethanol in 50 mM HEPES (pH 8). Different concentrations of dUMP were also included in the reaction mixtures. The specific activity of tritiated [5-^3H]dUMP (diammonium salt) stock was 15–30 Ci mmol^−1 (Moravek Biochemicals, CA, USA). 2-OH-1,4-NQ derivatives were prepared at 100 µM in 1% DMSO. Reactions were initiated by adding the enzyme (10 µM) and were stopped after 20 min incubation at 37°C.
# [7] = test system: AGS cells; assay: mitotoxicity, resazurin reduction; assay type: cell-based, human; details: for mitotoxicity: 0.78 to 50 μg ml^−1, 4 h treatment; for effect on mitochondrial metabolism: low concentrations, resazurin reduction
# Experimental: Mitochondrial toxicity (mitotoxicity) was assessed by measuring resazurin (7-hydroxy-3H-phenoxazin-3-one 10-oxide) reduction by following absorption changes at 570 nm (Mitochondrial Viability Assay; Abcam). Resazurin is an indicator dye that reports on oxidation–reduction reactions taking place in the mitochondria of living cells. AGS cells (≅2.5 × 10^5cells well^−1) cultured in a DMEM galactose/glutamine-supplemented medium were seeded in sterile white-walled 96-well clear-bottom microplates and treated for 4 h with different doses of 2-OH-1,4-NQ compounds ranging from 0.78 to 50 μg ml^−1. Addition of the stain solution was followed by a further 4 h incubation at 37°C (5% CO2, 90% humidity) and A570 was measured. Rotenone, an inhibitor of the mitochondrial respiratory chain complex I, was used as a positive control.
# [8] = test system: H. pylori strains 26695 and SS1; assay: disc diffusion test; assay type: cell-based, Helicobacter pylori; details: 10 μg per disc, 72 h
# Experimental: as §2
# Figure S2. Disk diffusion antibiograms of H. pylori strains 26695 (A) and SS1 (B) with the 2-OH-1,4-NQ compounds. To perform these disc diffusion tests, an overnight culture of the H. pylori strain was diluted to an OD600 ≈ 0.01. Blood agar plates were flooded with 2 ml of the diluted suspension. […] The diameters of each growth inhibition zone were measured on the Petri dish. […]
# subtracting the disc diameter (6 mm) from the measured zone. […]
# [9] = test system: H. pylori strain SS1; assay: mouse infection and treatment, gastric colonization; assay type: in vivo, Helicobacter pylori; details: NMRI mice, orogastric three times a day, 0.375 mg mouse day^−1 (17 mg kg^−1), one week
# Experimental: (§4) NMRI-specific pathogen-free mice (Charles River Laboratories) were orogastrically inoculated with 10^8 CFU of the H. pylori mouse-adapted strain SS1, prepared in 100 μl of peptone broth. Four groups of six to eight mice were infected by H. pylori strain SS1. Earlier experiments have established that after one week, colonization of mice is fully established. A negative control group of five mice was inoculated with peptone broth alone and was not colonized by H. pylori. One week after infection, three groups of mice were treated orogastrically three times a day with 500 µl of either compound 010-C, 010-E or 010-I dissolved in 2% β-cyclodextrin at 0.25 mg ml^−1 (0.375 mg mouse d^−1) during one week. As a control, the fourth group of mice was treated orogastrically three times a day by the same amount of 2% β-cyclodextrin (17.6 mM), the vehicle of the compounds. […] This average size is in agreement with the average size of β-cyclodextrin particles that self-aggregate in water at a concentration of 12 mM [39]. After treatment, viable H. pylori cells, colonizing the mouse stomach, were enumerated by culture of serial dilutions of homogenized tissue on blood agar plates containing bacitracin (200 μg ml^−1) and nalidixic acid (10 μg ml^−1) as in [40].
# [10] = tolerance of orogastric treatment in infected mice; assay type: in vivo, NMRI mice; details: orogastric three times a day, 0.375 mg mouse day^−1, one week
# Experimental: as §4
# [11] = 26695, 24 h, full growth inhibition, read-out: minimal inhibitory concentration (MIC) strain 26695
# [12] = 26695, 24 h, value in brackets, read-out: minimal inhibitory concentration (MIC) strain 26695
# T1 sequence (O26061 whole entry): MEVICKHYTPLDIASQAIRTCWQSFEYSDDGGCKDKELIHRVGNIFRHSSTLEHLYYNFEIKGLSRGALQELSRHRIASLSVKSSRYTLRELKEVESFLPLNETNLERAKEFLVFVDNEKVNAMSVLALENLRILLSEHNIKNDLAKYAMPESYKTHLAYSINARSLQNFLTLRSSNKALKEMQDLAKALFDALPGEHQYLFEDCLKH
compound,measurement,setting,value
"COc1ccc(CC2=C(O)C(=O)c3ccccc3C2=O)cc1 [007-A, 2-hydroxy-3-(4-methoxybenzyl)-1,4-naphthoquinone]",MIC,[1]; [11],10 µg/mL
same,MIC,[1]; [12],34 µM
same,Ki,[2],0.367 µM
same,cytotoxicity,[3],non-cytotoxic
same,kind of anti-microbial activity / viable cells after exposure,[4],no viable cells were recovered; also recorded: bactericidal
same,MIC,[5]; full growth inhibition,10 µg/mL
same,MIC,[5]; value in brackets,34 µM
same,remaining activity at 100 µM,[6],38.5%
same,dTMP-forming activity,[6],suppressed the dTMP-forming activity
same,mitotoxicity,[7],non-mitotoxic
same,effect on mitochondrial metabolism,[7],activated the mitochondrial metabolism
O=C1C(Cl)=C(Nc2ccc(F)cc2)C(=O)c2ccccc21 [010-G],MIC,[1]; [11],0.625 µg/mL
same,MIC,[1]; [12],2.07 µM
same,MIC,"[1]; liquid cultures, strains 26695 and SS1 not distinguished, read-out: MIC",~0.625 µg/mL
same,cytotoxicity,[3],cytotoxic
same,activity in disc diffusion tests,[8],inactive
same,MIC,[5]; full growth inhibition,0.625 µg/mL
same,MIC,[5]; value in brackets,2.07 µM
same,remaining activity at 100 µM,[6],21.1%
CCCCC1=C(O)C(=O)c2ccccc2C1=O [010-I],MIC,[1]; [11],10 µg/mL
same,MIC,[1]; [12],43.4 µM
same,Ki,[2],0.258 µM
same,decrease in the colonization loads (geometric means) versus vehicle,[9],1.22 log
same,decrease in the colonization loads versus vehicle,[9],17 fold
same,cytotoxicity,[3],non-cytotoxic
same,tolerance in mice,[10],tolerated in mice
same,effect on body or stomach weight,[10]; data not shown,None of the aforementioned treatments affected either the body or stomach weight
same,MIC,[5]; full growth inhibition,10 µg/mL
same,MIC,[5]; value in brackets,43.4 µM
same,remaining activity at 100 µM,[6],64.3%
same,dTMP-forming activity,[6],suppressed the dTMP-forming activity
same,mitotoxicity,[7],non-mitotoxic
same,effect on mitochondrial metabolism,[7],activated the mitochondrial metabolism
